Experimental data as given in publication PMC8617031, “Development of a BCL-xL and BCL-2 dual degrader with improved anti-leukemic activity,” (Nature Communications, 2021).
“And” between values parts separate entries of the source, which are not always exact repeats. Identical values can stand only once.

Experiments:
BCL-2 = biological target: T1, BCL-2 (Homo sapiens, UniProt P10415); test: BCL-2 degradation by immunoblot in 293T cells; format: cell-based; conditions: for BCL-2 degradation (in words) / DC50: 293T cells, 16 h; for DC50: four concentrations, Fig. 2b, read-out: BCL-2 DC50; for Dmax: HEK-293T
T1 construct: endogenous in cells
How it was run: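 Immunoblot of 293T cell lysates (RIPA, 20–40 μg protein per lane) with β-actin as loading control and chemiluminescent detection. Bands quantified by densitometry and normalized; DC50 and Dmax derived from the quantified blots, n = 3 biologically independent experiments.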

[1] = biological target: T2, BCL-2/PROTAC/VCB ternary complex (Homo sapiens, UniProt P10415+P40337); test: AlphaLISA ternary complex formation, cell-free, BCL-2; format: binding; conditions: for in vitro ternary complex formation with BCL-2 (in words): AlphaLISA, cell-free, Fig. 2d, 3f; for AlphaLISA signal, BCL-2/PROTAC/VCB: Fig. 2d raw Alpha reads
T2 construct: pGEX-6P-1-VHL(54-213) (pDL2200) was constructed through Gibson assembly method; made in house; host or cells: bacterial culture (LB broth, IPTG induction)
How it was run: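 Cell-free AlphaLISA: 5 nM His-tagged BCL-xL or BCL-2 plus 5 nM GST-VCB incubated with fourfold serially diluted compound 30 min at room temperature. Glutathione donor and His acceptor beads (20 µg/ml each) then added for 15 and 45 min; AlphaLISA signal plotted against compound concentration.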

[2] = compound 200000 nM, 2 technical replicates

T2 sequence (P10415 1-211 limits assumed): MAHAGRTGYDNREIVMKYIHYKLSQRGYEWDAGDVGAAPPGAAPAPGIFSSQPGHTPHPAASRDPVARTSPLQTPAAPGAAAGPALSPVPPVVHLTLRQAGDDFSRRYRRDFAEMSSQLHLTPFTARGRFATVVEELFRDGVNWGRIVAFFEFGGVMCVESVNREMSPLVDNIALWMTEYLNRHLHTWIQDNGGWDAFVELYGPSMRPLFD
T2 sequence (P40337 54-213 limits assumed): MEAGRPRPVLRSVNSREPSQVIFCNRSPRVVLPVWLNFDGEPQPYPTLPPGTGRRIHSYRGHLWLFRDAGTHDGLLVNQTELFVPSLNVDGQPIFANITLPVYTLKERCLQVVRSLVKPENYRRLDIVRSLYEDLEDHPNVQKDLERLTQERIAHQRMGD
T2 sequence (Q15369 17-112 partner limits assumed): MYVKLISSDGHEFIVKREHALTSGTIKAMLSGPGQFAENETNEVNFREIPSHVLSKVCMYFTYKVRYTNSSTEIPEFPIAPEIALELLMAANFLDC
T2 sequence (Q15370 whole entry partner): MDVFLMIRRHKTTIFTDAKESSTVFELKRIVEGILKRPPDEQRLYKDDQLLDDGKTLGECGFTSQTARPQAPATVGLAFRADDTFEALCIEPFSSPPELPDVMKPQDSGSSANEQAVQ
T1 sequence (P10415 whole entry): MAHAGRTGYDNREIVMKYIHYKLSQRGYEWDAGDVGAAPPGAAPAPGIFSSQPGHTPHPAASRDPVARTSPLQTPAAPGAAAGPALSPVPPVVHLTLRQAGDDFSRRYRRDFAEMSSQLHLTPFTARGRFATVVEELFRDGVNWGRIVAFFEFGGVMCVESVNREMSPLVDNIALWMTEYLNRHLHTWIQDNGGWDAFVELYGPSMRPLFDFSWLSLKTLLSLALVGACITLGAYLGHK

BCL-2 degradation (in words) (BCL-2) | DC50 (BCL-2) | Dmax (BCL-2) | in vitro ternary complex formation with BCL-2 (in words) [1] | AlphaLISA signal, BCL-2/PROTAC/VCB ([1]; compound 0.191 nM) | AlphaLISA signal, BCL-2/PROTAC/VCB ([1]; compound 0.763 nM) | AlphaLISA signal, BCL-2/PROTAC/VCB ([1]; compound 3.052 nM) | AlphaLISA signal, BCL-2/PROTAC/VCB ([1]; compound 12.207 nM) | AlphaLISA signal, BCL-2/PROTAC/VCB ([1]; compound 48.828 nM) | AlphaLISA signal, BCL-2/PROTAC/VCB ([1]; compound 195.31 nM) | AlphaLISA signal, BCL-2/PROTAC/VCB ([1]; compound 781.25 nM) | AlphaLISA signal, BCL-2/PROTAC/VCB ([1]; compound 3125 nM) | AlphaLISA signal, BCL-2/PROTAC/VCB ([1]; compound 12500 nM) | AlphaLISA signal, BCL-2/PROTAC/VCB ([1]; compound 50000 nM) | AlphaLISA signal, BCL-2/PROTAC/VCB [1, 2] | SMILES
also degraded BCL-2 | 54 nM | 94% | stronger ternary complexes | 15495 and 15269 | 16981 and 16694 | 31764 and 30263 | 220610 and 232235 | 1164349 and 1304184 | 1706795 and 1639825 | 1791615 and 1848085 | 524010 and 562226 | 80335 and 78686 | 17935 and 18240 | 8109 and 11043 | Cc1ncsc1-c1ccc([C@H](C)NC(=O)[C@@H]2C[C@@H](O)CN2C(=O)[C@@H](NC(=O)CCCCCCC(=O)N2CCN(CC3(C)CCC(c4ccc(Cl)cc4)=C(CN4CCN(c5ccc(C(=O)NS(=O)(=O)c6ccc(N[C@H](CCN7CCOCC7)CSc7ccccc7)c(S(=O)(=O)C(F)(F)F)c6)cc5)CC4)C3)CC2)C(C)(C)C)cc1 (stereo partly drawn) [PPC8]
also degraded BCL-2 | 316 nM | 79% | much weaker ternary complexes | 13571 and 17652 | 17336 and 18248 | 22108 and 21304 | 71357 and 62189 | 336659 and 328291 | 357647 and 419151 | 267337 and 283839 | 78279 and 78565 | 15094 and 15494 | 7032 and 8982 | 9255 and 9885 | Cc1ncsc1-c1ccc([C@H](C)NC(=O)[C@@H]2C[C@@H](O)CN2C(=O)[C@@H](NC(=O)CCCCCCCC(=O)N2CCN(CC3(C)CCC(c4ccc(Cl)cc4)=C(CN4CCN(c5ccc(C(=O)NS(=O)(=O)c6ccc(N[C@H](CCN7CCOCC7)CSc7ccccc7)c(S(=O)(=O)C(F)(F)F)c6)cc5)CC4)C3)CC2)C(C)(C)C)cc1 (stereo partly drawn) [PPC9]
